These results are taken from publication PMC10893631, “Receptor-based pharmacophore modeling, molecular docking, synthesis and biological evaluation of novel VEGFR-2, FGFR-1, and BRAF multi-kinase inhibitors” (BMC Chemistry, 2024).

Holding throughout (test): NCI SRB growth inhibition (single dose 10 µM / five-dose)
Common to all, as to format: cell-based, human

One test has as its system EKVX. The note with it: Homo sapiens; EKVX (Non-small cell lung cancer), 10 µM; read-out: GI%. On the procedure: (§1) Screening of cytotoxic activity against a panel of sixty human tumor cell lines The selected compounds by NCI were evaluated for their anticancer activity in a two- stage process. […] Then, the output from the single dose screen is reported as a mean graph. […] Assay protocol. […] For a typical screening experiment, cells are inoculated into 96 well microtiter plates in 100 µL at plating densities ranging from 5000 to 40,000 cells/well depending on the doubling time of individual cell lines. […] After 24 h, two plates of each cell line are fixed in situ with TCA, to represent a measurement of the cell population for each cell line at the time of drug addition (Tz). The experimental drugs are solubilized in dimethyl sulfoxide at 400-fold the desired final maximum test concentration and stored frozen prior to use. At the time of drug addition, an aliquot of frozen concentrate is thawed and diluted to twice the desired final maximum test concentration with complete medium containing 50 µg/mL gentamicin. Additional four, 10-fold or ½ log serial dilutions are made to provide a total of five drug concentrations plus control. Aliquots of 100 mL of these different drug dilutions are added to the appropriate microtiter wells already containing […] of medium, resulting in the required final drug concentrations. […] For adherent cells, the assay is terminated by the addition of cold TCA. […] The supernatant is discarded, and the plates are washed five times with tap water and air dried. Sulforhodamine B (SRB) solution ([…]) at 0.4% (w/v) in 1% acetic acid is added to each well, and plates are incubated for 10 min at room temperature. After staining, unbound dye is removed by washing five times with 1% acetic acid and the plates are air dried. […] Using the seven absorbance measurements [time zero, (Tz), control growth, (C), and test growth in the presence of drug at the five concentration levels (Ti)], the percentage growth is calculated at each of the drug concentrations levels. Percentage growth inhibition is calculated as: [(Ti Tz)/(C–Tz)] x 100 for concentrations for which Ti>/=Tz and [(Ti-Tz)/Tz] x 100 for concentrations for which Ti < Tz. Three dose response parameters are calculated for each experimental agent. […] The drug concentration resulting in total growth inhibition (TGI) is calculated from Ti = Tz. […] Values are calculated for each of these three parameters if the level of activity is reached; however, if the effect is not reached or is exceeded, the value for that parameter is expressed as greater or less than the maximum or minimum concentration tested.

The subject of the next test is NCI-H226. The note with it: Homo sapiens; NCI-H226 (Non-small cell lung cancer), 10 µM; read-out: GI%. The procedure:
as §1

In another test the test system is SK-MEL-5. As to conditions: Homo sapiens; SK-MEL-5 (Melanoma), 10 µM; read-out: GI%. The procedure:
as §1

In the next test the test system is HT29. As to conditions: Homo sapiens, HT-29; HT29 (Colon cancer), 10 µM; read-out: GI%. The procedure: as §1
A further test deals with SNB-19. The note with it: Homo sapiens; SNB-19 (CNS cancer), 10 µM; read-out: GI%. On the procedure: as §1
The test system of a further test is SNB-75. The note with it: Homo sapiens; SNB-75 (CNS cancer), 10 µM; read-out: GI%. The procedure:
as §1

A further test concerns K-562. As to conditions: Homo sapiens, K562; K-562 (Leukemia), 10 µM; read-out: GI%. The procedure:
as §1

In the next test the test system is NCI-H522. The note with it: Homo sapiens; NCI-H522 (Non-small cell lung cancer), 10 µM; read-out: GI%. On the procedure:
as §1

The subject of the next test is BT-549. The note with it: Homo sapiens; BT-549 (Breast cancer), 10 µM; read-out: GI%. On the procedure: as §1
The test system of a further test is MDA-MB-231/ATCC. As to conditions: Homo sapiens; MDA-MB-231/ATCC (Breast cancer), 10 µM; read-out: GI%. On the procedure:
as §1

Another test relates to SF-268. As to conditions: Homo sapiens; SF-268 (CNS cancer), 10 µM; read-out: GI%. The procedure:
as §1

The next test deals with UACC-257. The note with it: Homo sapiens; UACC-257 (Melanoma), 10 µM; read-out: GI%. On the procedure:
as §1

A further test concerns TK-10. The note with it: Homo sapiens; TK-10 (Renal cancer), 10 µM; read-out: GI%. On the procedure: as §1
In another test the test system is RPMI-8226. As to conditions: Homo sapiens; RPMI-8226 (Leukemia), 10 µM; read-out: GI%. On the procedure: as §1
A further test relates to MDA-MB-468. As to conditions: Homo sapiens; MDA-MB-468 (Breast cancer), 10 µM; read-out: GI%. The procedure:
as §1

For the next test, the system named is 786–0. As to conditions: Homo sapiens; 786–0 (Renal cancer), 10 µM; read-out: GI%. On the procedure:
as §1

A further test has as its system IGROV1. As to conditions: Homo sapiens, IGROV-1; IGROV1 (Ovarian cancer), 10 µM; read-out: GI%. On the procedure: as §1
The next test relates to ACHN. As to conditions: Homo sapiens; ACHN (Renal cancer), 10 µM; read-out: GI%. The procedure:
as §1

Another test concerns NCI/ADR-RES. As to conditions: Homo sapiens; NCI/ADR-RES (Ovarian cancer), 10 µM; read-out: GI%. The procedure: as §1
The test system of a further test is SN12C. The note with it: Homo sapiens; SN12C (Renal cancer), 10 µM; read-out: GI%. The procedure:
as §1

The subject of another test is KM12. The note with it: Homo sapiens; KM12 (Colon cancer), 10 µM; read-out: GI%. On the procedure: as §1
The test system of a further test is SK-MEL-2. The note with it: Homo sapiens; SK-MEL-2 (Melanoma), 10 µM; read-out: GI%. On the procedure:
as §1

Another test has as its system NCI-H23. The note with it: Homo sapiens; NCI-H23 (Non-small cell lung cancer), 10 µM; read-out: GI%. The procedure:
as §1

In a further test the test system is SR. As to conditions: Homo sapiens; SR (Leukemia), 10 µM; read-out: GI%. The procedure:
as §1

A further test relates to HOP-62. As to conditions: Homo sapiens; HOP-62 (Non-small cell lung cancer), 10 µM; read-out: GI%. The procedure:
as §1

The next test relates to COLO 205. The note with it: Homo sapiens; COLO 205 (Colon cancer), 10 µM; read-out: GI%. On the procedure: as §1

On to `COc1cc(C=NNC(=O)c2ccc3[nH]c(-c4ccccc4)nc3c2)cc(OC)c1OC` [8g, 2-Phenyl-N'-(3,4,5-trimethoxybenzylidene)-1H-benzo[d]imidazole-5-carbohydrazide], for which the inhibition at 10 µM with EKVX was 12.2%; in the test with NCI-H226, 50.4%; in the test with SK-MEL-5, 89.3%; with HT29, 47.3%; in the test with SNB-19, 25.2%; with SNB-75, less than 5%. The inhibition at 10 µM came to 30.4% with K-562; 50.7% in the test with NCI-H522; 35.4% with BT-549; 30.5% in the test on MDA-MB-231/ATCC; 32% with SF-268; 54.3% in the test on UACC-257. Moreover, the inhibition at 10 µM with TK-10 worked out at 6.66%; in the test with RPMI-8226, 86.9%; in the test with MDA-MB-468 it was 39.2%; in the test with 786–0 it was 27.8%; with IGROV1, 17%; in the test on ACHN, 33.8%. Also, the inhibition at 10 µM in the test on NCI/ADR-RES was less than 5%; in the test on SN12C it was 32.2%; in the test on KM12, 36.4%; in the test on SK-MEL-2 it was 21.8%; with NCI-H23 it was 49.4%; with SR it was 17.6%.
With `COc1ccc(-c2nc3cc(C(=O)NN=Cc4cc(OC)c(OC)c(OC)c4)ccc3[nH]2)cc1` [8n, 2-(4-Methoxyphenyl)-N'-(3,4,5-trimethoxybenzylidene)-1H-benzo[d]imidazole-5-carbohydrazide], the inhibition at 10 µM is less than 5% in the test with EKVX; 22.3% with NCI-H226; 14.6% with HOP-62; 42.6% in the test on SK-MEL-5; 36.2% with SNB-19; less than 5% with SNB-75. Further, the inhibition at 10 µM with K-562 is 23.7%; with NCI-H522, 96.2%; in the test with BT-549, less than 5%; with MDA-MB-231/ATCC, 7.37%; with SF-268 it was 21%; in the test with UACC-257 it was 25.6%. In addition, the inhibition at 10 µM is less than 5% in the test on TK-10; 33.7% with COLO 205; 44.5% in the test with RPMI-8226; less than 5% in the test on MDA-MB-468; less than 5% in the test with 786–0; less than 5% with IGROV1. Moreover, the inhibition at 10 µM in the test with ACHN was 9.17%; with NCI/ADR-RES, less than 5%; with SN12C, 9.66%; with KM12 it was 13.8%; in the test on NCI-H23, 10.8%; in the test on SR, 26.9%.
For `COc1ccc(C=NNC(=O)c2ccc3[nH]c(-c4ccc(Cl)cc4)nc3c2)cc1O` [8s, 2-(4-Chlorophenyl)-N'-(3-hydroxy-4-methoxybenzylidene)-1H-benzo[d]imidazole-5-carbohydrazide], the inhibition at 10 µM with EKVX was 37%; in the test with NCI-H226 it was 37.6%; with SK-MEL-5, 53.3%; in the test on HT29, greater than 100%; with SNB-19, 39.7%; in the test with SNB-75, 6.41%. The inhibition at 10 µM in the test with K-562 is 50.3%; with NCI-H522, 30.9%; with BT-549, 42.9%; in the test with MDA-MB-231/ATCC, 75.1%; in the test with SF-268 it was 72.7%; in the test on UACC-257 it was 24.6%. Besides, the inhibition at 10 µM was less than 5% in the test with TK-10; greater than 100% in the test on RPMI-8226; 88.7% in the test with MDA-MB-468; 52% in the test on 786–0; less than 5% with IGROV1; less than 5% in the test with ACHN. The inhibition at 10 µM with NCI/ADR-RES was less than 5%; in the test with SN12C, 31.3%; in the test on KM12, 68.4%; in the test with SK-MEL-2 it was 76.1%; with NCI-H23, 29.2%; in the test on SR, 77.2%.
